Reference: ChEMBL document CHEMBL5291721, “A preclinical secondary pharmacology resource illuminates target-adverse drug reaction associations of marketed drugs” (Nat Commun, 2023)

Key:
[1] = target: T1, Androgen receptor (Homo sapiens, UniProt P10275)
T1 sequence (P10275 whole entry): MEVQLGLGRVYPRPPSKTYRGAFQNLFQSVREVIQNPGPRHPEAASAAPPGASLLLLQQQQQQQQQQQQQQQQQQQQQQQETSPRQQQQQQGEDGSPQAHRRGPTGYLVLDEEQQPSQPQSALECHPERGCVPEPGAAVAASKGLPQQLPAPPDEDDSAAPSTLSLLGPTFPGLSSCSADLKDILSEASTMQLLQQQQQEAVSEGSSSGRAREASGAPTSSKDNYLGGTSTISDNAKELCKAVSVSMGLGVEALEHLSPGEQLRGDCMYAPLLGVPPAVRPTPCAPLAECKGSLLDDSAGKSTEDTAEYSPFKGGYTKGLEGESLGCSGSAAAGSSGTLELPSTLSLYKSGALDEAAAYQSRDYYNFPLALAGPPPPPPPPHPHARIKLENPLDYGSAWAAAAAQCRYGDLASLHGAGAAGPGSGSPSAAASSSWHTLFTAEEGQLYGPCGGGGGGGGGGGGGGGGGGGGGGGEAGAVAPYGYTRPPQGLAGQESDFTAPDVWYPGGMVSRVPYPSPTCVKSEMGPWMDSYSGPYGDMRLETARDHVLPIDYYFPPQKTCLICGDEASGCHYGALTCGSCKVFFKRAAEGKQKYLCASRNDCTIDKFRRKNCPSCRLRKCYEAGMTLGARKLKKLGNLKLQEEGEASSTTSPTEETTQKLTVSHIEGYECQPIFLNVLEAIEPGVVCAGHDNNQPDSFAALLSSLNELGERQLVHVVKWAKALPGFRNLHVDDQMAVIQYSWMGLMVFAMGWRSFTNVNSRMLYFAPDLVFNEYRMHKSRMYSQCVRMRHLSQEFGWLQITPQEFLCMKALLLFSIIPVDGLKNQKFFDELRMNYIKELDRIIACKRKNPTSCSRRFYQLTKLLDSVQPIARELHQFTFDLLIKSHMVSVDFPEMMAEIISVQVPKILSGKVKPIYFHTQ

[2] = target: Gamma-aminobutyric acid receptor subunit alpha-1 (Rattus norvegicus, UniProt P62813)
[3] = target: T2, Progesterone receptor (Homo sapiens, UniProt P06401)
T2 sequence (P06401 whole entry): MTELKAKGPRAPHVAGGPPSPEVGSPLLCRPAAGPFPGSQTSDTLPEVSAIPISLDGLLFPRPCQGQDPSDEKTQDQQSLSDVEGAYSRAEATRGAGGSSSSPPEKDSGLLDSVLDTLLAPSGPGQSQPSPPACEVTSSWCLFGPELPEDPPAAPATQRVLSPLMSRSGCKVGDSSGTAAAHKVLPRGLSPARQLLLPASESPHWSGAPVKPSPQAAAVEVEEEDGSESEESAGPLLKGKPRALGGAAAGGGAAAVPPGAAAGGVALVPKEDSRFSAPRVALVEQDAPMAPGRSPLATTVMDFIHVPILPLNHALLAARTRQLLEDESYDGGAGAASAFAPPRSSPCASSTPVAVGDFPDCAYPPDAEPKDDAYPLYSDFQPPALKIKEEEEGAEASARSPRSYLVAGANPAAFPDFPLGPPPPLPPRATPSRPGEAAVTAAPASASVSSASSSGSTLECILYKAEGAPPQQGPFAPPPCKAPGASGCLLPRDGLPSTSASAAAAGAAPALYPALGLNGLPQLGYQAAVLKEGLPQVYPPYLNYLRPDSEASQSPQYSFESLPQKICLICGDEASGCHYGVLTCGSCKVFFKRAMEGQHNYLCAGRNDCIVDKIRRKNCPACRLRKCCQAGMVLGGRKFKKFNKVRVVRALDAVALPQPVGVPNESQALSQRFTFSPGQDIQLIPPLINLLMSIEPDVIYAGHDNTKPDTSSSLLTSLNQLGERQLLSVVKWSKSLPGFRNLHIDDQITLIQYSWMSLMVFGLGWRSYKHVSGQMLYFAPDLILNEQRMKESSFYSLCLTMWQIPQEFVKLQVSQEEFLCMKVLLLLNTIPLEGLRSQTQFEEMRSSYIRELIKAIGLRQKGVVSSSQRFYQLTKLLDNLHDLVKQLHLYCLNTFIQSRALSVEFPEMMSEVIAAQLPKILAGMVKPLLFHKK

[4] = target: T3, Muscarinic acetylcholine receptor M1 (Homo sapiens, UniProt P11229); assay type: functional, cell-based
T3 sequence (P11229 whole entry): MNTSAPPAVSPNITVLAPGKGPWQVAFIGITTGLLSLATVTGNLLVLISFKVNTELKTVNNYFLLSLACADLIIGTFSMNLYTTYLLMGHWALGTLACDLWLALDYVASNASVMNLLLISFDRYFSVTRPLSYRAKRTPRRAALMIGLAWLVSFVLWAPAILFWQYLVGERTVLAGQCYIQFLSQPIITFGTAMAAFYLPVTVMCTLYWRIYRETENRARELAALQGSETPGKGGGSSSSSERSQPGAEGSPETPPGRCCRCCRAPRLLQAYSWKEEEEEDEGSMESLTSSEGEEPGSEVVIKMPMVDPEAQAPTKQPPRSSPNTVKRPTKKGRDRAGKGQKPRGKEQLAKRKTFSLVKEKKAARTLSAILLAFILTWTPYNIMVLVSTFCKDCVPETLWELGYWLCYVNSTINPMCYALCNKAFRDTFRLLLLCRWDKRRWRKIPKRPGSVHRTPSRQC

[5] = target: T3, Muscarinic acetylcholine receptor M1; assay type: functional, cell-based; remark: listed apart in the source
[6] = target: Gamma-aminobutyric acid receptor subunit alpha-1/alpha-2/beta-2/gamma-2 (Homo sapiens, UniProt P14867+P18507+P47869+P47870); assay type: protein-complex assay
[7] = target: T4, Muscarinic acetylcholine receptor M2 (Homo sapiens, UniProt P08172); assay type: functional, cell-based
T4 sequence (P08172 whole entry): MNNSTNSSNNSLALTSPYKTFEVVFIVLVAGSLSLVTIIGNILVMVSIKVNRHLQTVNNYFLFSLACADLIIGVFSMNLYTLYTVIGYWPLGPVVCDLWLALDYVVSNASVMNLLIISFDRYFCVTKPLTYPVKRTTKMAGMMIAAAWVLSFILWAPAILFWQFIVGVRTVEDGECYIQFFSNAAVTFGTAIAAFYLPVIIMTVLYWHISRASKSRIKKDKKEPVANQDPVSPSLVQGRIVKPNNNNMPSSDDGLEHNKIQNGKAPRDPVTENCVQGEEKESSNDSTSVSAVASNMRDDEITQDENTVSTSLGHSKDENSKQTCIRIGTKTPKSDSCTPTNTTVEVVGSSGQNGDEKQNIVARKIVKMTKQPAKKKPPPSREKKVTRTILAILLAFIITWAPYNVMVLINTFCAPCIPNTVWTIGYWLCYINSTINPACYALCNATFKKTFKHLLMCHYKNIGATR
Also: assay procedure not described here.

Gamma-aminobutyric acid receptor subunit alpha-1/alpha-2/beta-2/gamma-2, sequence (P14867 whole entry): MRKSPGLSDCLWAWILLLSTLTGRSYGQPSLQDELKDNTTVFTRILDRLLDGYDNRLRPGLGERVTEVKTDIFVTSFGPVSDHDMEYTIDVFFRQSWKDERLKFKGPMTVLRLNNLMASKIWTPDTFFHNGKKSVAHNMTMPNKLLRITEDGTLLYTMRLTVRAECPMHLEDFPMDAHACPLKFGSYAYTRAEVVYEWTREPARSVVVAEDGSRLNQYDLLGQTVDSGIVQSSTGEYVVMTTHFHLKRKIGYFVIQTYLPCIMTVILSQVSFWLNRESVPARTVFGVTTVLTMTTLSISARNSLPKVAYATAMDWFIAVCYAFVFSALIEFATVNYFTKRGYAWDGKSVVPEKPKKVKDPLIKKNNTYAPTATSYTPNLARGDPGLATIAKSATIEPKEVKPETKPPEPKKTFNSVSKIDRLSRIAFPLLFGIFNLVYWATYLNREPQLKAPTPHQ
Gamma-aminobutyric acid receptor subunit alpha-1/alpha-2/beta-2/gamma-2, sequence (P47870 whole entry): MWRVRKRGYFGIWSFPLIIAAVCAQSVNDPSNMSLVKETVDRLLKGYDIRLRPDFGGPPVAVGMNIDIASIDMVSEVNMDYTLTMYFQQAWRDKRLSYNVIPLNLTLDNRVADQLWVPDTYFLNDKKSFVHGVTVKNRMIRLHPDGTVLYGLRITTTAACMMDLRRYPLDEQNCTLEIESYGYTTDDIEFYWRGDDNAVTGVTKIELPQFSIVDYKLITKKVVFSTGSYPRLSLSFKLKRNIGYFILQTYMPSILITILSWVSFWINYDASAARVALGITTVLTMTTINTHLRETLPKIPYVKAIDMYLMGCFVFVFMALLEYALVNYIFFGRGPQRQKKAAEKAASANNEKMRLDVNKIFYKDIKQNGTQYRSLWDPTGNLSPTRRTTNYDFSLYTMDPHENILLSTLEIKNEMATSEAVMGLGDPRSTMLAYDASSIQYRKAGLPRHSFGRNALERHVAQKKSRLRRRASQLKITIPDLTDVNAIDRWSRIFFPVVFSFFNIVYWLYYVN
Gamma-aminobutyric acid receptor subunit alpha-1/alpha-2/beta-2/gamma-2, sequence (P18507 whole entry): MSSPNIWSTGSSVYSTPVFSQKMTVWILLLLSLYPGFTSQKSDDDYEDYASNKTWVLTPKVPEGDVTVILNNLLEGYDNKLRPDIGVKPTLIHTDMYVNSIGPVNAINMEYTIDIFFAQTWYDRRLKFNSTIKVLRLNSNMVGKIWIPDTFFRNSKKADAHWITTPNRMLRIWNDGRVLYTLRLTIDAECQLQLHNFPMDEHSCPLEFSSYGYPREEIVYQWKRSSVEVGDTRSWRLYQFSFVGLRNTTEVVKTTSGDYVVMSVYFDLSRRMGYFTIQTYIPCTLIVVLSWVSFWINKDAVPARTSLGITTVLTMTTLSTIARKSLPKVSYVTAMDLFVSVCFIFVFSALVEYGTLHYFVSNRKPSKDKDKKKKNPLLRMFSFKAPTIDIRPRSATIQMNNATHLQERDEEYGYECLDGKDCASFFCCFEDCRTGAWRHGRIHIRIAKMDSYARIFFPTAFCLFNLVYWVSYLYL
Gamma-aminobutyric acid receptor subunit alpha-1/alpha-2/beta-2/gamma-2, sequence (P47869 whole entry): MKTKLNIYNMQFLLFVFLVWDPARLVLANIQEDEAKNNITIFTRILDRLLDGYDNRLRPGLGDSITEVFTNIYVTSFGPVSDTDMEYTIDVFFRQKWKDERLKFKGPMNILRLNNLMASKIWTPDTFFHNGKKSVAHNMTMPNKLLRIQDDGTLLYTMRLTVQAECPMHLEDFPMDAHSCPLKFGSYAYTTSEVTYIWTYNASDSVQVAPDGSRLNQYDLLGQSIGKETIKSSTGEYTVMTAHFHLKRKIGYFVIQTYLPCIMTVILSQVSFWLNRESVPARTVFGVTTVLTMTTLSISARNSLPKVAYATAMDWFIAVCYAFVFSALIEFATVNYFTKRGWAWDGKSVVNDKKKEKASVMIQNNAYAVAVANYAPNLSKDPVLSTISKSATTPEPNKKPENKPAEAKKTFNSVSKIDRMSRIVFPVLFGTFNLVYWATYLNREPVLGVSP
Gamma-aminobutyric acid receptor subunit alpha-1, sequence (P62813 whole entry): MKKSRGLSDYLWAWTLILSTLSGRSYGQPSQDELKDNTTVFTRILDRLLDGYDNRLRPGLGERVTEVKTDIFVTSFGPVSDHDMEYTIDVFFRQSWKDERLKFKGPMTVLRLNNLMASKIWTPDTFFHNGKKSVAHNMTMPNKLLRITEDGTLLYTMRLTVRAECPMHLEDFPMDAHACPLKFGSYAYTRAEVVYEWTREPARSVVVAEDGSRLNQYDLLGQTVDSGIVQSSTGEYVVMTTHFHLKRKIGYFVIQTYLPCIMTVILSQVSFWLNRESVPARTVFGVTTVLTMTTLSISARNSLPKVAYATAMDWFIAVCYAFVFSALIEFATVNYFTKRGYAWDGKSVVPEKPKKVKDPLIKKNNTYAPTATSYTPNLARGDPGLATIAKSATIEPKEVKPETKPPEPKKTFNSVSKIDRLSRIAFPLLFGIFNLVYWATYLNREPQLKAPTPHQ

Row | Compound | AC50 [1] [µM] | AC50 [2] [µM] | AC50 [3] [µM] | AC50 [4] [µM] | AC50 [5] [µM] | AC50 [6] [µM] | AC50 [7] [µM]
1 | OC(CN1CCCCC1)c1cc(-c2ccccc2)on1 (stereo unspecified) [PERISOXAL] | > 30 | > 30 | > 30 | – | – | – | –
2 | CC1(C)C[C@@H]1C(=O)N/C(=C\CCCCSC[C@H](N)C(=O)O)C(=O)O [CILASTATIN] | > 30 | > 30 | > 30 | > 30 | > 30 | – | –
3 | CN1CCCC(CC2c3ccccc3Sc3ccccc32)C1 (stereo unspecified) [METHIXENE] | – | – | > 30 | 0.0109 | > 30 | > 30 | –
4 | Nc1ccn(C[C@@H](CO)OCP(=O)(O)O)c(=O)n1 [CIDOFOVIR] | – | – | > 30 | > 30 | > 30 | > 30 | –
5 | CCn1c(=O)c2c(nc(/C=C/c3ccc(OC)c(OC)c3)n2C)n(CC)c1=O [ISTRADEFYLLINE] | – | – | > 30 | > 30 | > 30 | > 30 | > 30
6 | Cc1cnc(C(=O)O)c[n+]1[O-] [ACIPIMOX] | – | – | > 30 | > 30 | > 30 | > 30 | –
7 | CO[C@H]1/C=C/O[C@@]2(C)Oc3c(C)c(O)c4c(c3C2=O)C2=NC3(CCN(CC(C)C)CC3)NC2=C(NC(=O)/C(C)=C\C=C\[C@H](C)[C@H](O)[C@@H](C)[C@@H](O)[C@@H](C)[C@H](OC(C)=O)[C@@H]1C)C4=O [RIFABUTIN] | > 30 | – | > 30 | – | – | > 30 | –
8 | COc1cc(C[C@@H]2NCCc3cc(O)c(O)cc32)cc(OC)c1OC [TRETOQUINOL] | – | – | > 30 | > 30 | > 30 | > 30 | –
9 | CC(O)(CC(=O)O)CC(=O)O [MEGLUTOL] | > 30 | > 30 | > 30 | 9.87 | > 30 | – | –
10 | CC(C)(C)NCC(O)COc1ccccc1C#N (stereo unspecified) [BUNITROLOL] | > 30 | > 30 | > 30 | > 30 | > 30 | – | > 30
11 | CCCCC(=O)O[C@H]1CC[C@H]2[C@@H]3CCc4cc(O)ccc4[C@H]3CC[C@]12C [ESTRADIOL VALERATE] | – | – | 0.234 | 23.1 | > 30 | > 10 | –
12 | COc1ccc(C(=O)c2ccccc2)c(O)c1 [OXYBENZONE] | > 30 | > 30 | 25.7 | > 10 | > 30 | – | > 30
13 | Oc1ccc(OCc2ccccc2)cc1 [MONOBENZONE] | > 30 | – | > 30 | – | – | > 30 | –
14 | NC(=O)N/N=C/c1ccc([N+](=O)[O-])o1 [NITROFURAZONE] | – | > 30 | > 30 | > 30 | > 30 | > 30 | –
15 | Cc1ncc(CO)c(CO)c1O [PYRIDOXINE] | – | > 30 | > 30 | > 30 | > 30 | > 30 | –
16 | COc1c(OCCCN2CCOCC2)ccc2c1N=C(NC(=O)c1cnc(N)nc1)N1CCN=C21 [COPANLISIB] | > 30 | > 30 | > 30 | > 30 | > 30 | – | –
17 | COC(=O)Nc1nc2cc(C(=O)c3ccc(F)cc3)ccc2[nH]1 [FLUBENDAZOLE] | > 30 | – | > 30 | – | – | > 30 | –
18 | [H]/N=C(/N)NS(=O)(=O)c1ccc(N)cc1 [SULFAGUANIDINE] | > 30 | > 30 | > 30 | > 30 | > 30 | – | –
19 | C[C@@H](O)[C@H]1C(=O)N2C(C(=O)O)=C(S[C@@H]3CN[C@H](C(=O)Nc4cccc(C(=O)O)c4)C3)[C@H](C)[C@H]12 | > 30 | > 30 | > 30 | – | – | – | –
20 | COc1ncnc(NS(=O)(=O)c2ccc(N)cc2)c1OC [SULFADOXINE] | – | > 30 | > 30 | – | – | > 30 | –
21 | Cc1ccc(O)c([C@H](CCN(C(C)C)C(C)C)c2ccccc2)c1 [TOLTERODINE] | – | > 30 | – | 0.0206 | > 30 | > 30 | –
22 | CCOc1ccc(Cc2nccc3cc(OCC)c(OCC)cc23)cc1OCC [ETHAVERINE] | > 30 | > 30 | > 30 | 1.66 | > 30 | – | –
23 | OCc1ccccc1 [BENZYL ALCOHOL] | > 30 | – | > 30 | – | – | > 30 | –
24 | CC(=O)O[C@]1(C(C)=O)CC[C@H]2[C@@H]3CCC4=CC(=O)CCC4=C3[C@@H](c3ccc(N(C)C)cc3)C[C@@]21C [ULIPRISTAL ACETATE] | 0.03 | > 30 | 0.003 | > 30 | > 30 | – | –
25 | CC1(C)S[C@@H]2[C@H](NC(=O)[C@H](NC(=O)c3cnc4cccnc4c3O)c3ccccc3)C(=O)N2[C@H]1C(=O)O [APALCILLIN] | > 30 | 1.25 | > 30 | > 30 | > 30 | – | –
26 | C[C@@H]1O[C@@H](O[C@H]2C[C@@H](O)[C@]3(CO)[C@H]4[C@H](O)C[C@]5(C)[C@@H](C6=CC(=O)OC6)CC[C@]5(O)[C@@H]4CC[C@]3(O)C2)[C@H](O)[C@H](O)[C@H]1O [OUABAIN] | > 30 | – | > 30 | – | – | > 30 | –
27 | Nc1ccc(C(=O)NCC(=O)O)cc1 [AMINOHIPPURIC ACID] | – | – | > 30 | > 30 | > 30 | > 30 | –
28 | O=NN(CCCl)C(=O)NCCCl [CARMUSTINE] | > 30 | > 30 | – | – | – | – | –
